Holding throughout (assay type): cell-based
One test deals with ATM kinase (Homo sapiens (Human), UniProt Q13315). As to the kind of experiment: Assay a) ATM cellular potency assay (pATM Ser1981 in X-ray irradiated HT29 cells). The following applies: HT29 cells, pATM Ser1981 after X-ray irradiation; geometric mean where repeated; read-out: Assay a) ATM Cell IC50.
Another test addresses ATR kinase (Homo sapiens (Human), UniProt Q13535). The experiment in a line: Assay b) ATR cellular potency assay (pChk1 Ser345 in HT29 cells treated with 4NQO). To be noted: HT29 cells, pChk1 Ser345 after 4NQO; geometric mean where repeated; read-out: Assay b) ATR Cell IC50.
Another test concerns the target PI3K-α (Homo sapiens, UniProt P42336). As to the kind of experiment: Assay c) PI3K cellular potency assay (phospho-Akt T308 ELISA in BT474 cells). To be noted: BT474 cells, phospho-Akt T308, 2 h; geometric mean where repeated; read-out: Assay c) PI3Kα Cell IC50.
A further test has as its target mTOR (Homo sapiens (Human), UniProt P42345). The experiment in a line: Assay d) mTOR cellular potency assay (phospho-AKT Ser473 in MDA-MB-468 cells). The following applies: MDA-MB-468 cells, phospho-AKT Ser473, 2 h; geometric mean where repeated; read-out: Assay d) mTOR Cell IC50.

Structures can show the parent of a compound that is named as a salt. Bounds are passed on as bounds.

PI3K-α, sequence (P42336 whole entry, looked up): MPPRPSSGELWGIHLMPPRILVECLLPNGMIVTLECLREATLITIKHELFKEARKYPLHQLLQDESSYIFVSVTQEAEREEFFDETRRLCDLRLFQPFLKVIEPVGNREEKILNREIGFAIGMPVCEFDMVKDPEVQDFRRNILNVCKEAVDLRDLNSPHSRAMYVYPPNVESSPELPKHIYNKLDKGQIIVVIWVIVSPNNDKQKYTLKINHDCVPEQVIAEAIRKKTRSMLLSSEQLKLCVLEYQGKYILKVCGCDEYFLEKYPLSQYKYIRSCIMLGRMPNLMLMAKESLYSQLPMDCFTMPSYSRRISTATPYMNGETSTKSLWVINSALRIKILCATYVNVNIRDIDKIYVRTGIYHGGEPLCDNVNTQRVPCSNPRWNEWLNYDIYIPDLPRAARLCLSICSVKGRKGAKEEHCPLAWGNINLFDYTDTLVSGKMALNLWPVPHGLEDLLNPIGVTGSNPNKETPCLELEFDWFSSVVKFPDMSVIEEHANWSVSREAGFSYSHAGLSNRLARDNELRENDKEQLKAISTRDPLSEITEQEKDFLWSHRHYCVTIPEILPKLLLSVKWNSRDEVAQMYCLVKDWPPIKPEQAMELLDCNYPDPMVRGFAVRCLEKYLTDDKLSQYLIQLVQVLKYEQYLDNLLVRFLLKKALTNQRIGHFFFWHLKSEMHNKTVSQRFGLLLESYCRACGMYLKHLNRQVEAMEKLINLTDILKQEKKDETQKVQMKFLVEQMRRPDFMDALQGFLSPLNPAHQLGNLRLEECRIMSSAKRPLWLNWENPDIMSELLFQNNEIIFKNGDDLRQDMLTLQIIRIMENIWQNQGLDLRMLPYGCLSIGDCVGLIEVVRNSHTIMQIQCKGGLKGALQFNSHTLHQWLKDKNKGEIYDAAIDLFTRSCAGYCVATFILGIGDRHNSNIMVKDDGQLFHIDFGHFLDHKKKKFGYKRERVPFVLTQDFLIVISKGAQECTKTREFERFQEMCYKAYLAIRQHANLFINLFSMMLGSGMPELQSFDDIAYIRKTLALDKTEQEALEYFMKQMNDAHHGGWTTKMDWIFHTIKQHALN
ATM kinase, sequence (Q13315 whole entry): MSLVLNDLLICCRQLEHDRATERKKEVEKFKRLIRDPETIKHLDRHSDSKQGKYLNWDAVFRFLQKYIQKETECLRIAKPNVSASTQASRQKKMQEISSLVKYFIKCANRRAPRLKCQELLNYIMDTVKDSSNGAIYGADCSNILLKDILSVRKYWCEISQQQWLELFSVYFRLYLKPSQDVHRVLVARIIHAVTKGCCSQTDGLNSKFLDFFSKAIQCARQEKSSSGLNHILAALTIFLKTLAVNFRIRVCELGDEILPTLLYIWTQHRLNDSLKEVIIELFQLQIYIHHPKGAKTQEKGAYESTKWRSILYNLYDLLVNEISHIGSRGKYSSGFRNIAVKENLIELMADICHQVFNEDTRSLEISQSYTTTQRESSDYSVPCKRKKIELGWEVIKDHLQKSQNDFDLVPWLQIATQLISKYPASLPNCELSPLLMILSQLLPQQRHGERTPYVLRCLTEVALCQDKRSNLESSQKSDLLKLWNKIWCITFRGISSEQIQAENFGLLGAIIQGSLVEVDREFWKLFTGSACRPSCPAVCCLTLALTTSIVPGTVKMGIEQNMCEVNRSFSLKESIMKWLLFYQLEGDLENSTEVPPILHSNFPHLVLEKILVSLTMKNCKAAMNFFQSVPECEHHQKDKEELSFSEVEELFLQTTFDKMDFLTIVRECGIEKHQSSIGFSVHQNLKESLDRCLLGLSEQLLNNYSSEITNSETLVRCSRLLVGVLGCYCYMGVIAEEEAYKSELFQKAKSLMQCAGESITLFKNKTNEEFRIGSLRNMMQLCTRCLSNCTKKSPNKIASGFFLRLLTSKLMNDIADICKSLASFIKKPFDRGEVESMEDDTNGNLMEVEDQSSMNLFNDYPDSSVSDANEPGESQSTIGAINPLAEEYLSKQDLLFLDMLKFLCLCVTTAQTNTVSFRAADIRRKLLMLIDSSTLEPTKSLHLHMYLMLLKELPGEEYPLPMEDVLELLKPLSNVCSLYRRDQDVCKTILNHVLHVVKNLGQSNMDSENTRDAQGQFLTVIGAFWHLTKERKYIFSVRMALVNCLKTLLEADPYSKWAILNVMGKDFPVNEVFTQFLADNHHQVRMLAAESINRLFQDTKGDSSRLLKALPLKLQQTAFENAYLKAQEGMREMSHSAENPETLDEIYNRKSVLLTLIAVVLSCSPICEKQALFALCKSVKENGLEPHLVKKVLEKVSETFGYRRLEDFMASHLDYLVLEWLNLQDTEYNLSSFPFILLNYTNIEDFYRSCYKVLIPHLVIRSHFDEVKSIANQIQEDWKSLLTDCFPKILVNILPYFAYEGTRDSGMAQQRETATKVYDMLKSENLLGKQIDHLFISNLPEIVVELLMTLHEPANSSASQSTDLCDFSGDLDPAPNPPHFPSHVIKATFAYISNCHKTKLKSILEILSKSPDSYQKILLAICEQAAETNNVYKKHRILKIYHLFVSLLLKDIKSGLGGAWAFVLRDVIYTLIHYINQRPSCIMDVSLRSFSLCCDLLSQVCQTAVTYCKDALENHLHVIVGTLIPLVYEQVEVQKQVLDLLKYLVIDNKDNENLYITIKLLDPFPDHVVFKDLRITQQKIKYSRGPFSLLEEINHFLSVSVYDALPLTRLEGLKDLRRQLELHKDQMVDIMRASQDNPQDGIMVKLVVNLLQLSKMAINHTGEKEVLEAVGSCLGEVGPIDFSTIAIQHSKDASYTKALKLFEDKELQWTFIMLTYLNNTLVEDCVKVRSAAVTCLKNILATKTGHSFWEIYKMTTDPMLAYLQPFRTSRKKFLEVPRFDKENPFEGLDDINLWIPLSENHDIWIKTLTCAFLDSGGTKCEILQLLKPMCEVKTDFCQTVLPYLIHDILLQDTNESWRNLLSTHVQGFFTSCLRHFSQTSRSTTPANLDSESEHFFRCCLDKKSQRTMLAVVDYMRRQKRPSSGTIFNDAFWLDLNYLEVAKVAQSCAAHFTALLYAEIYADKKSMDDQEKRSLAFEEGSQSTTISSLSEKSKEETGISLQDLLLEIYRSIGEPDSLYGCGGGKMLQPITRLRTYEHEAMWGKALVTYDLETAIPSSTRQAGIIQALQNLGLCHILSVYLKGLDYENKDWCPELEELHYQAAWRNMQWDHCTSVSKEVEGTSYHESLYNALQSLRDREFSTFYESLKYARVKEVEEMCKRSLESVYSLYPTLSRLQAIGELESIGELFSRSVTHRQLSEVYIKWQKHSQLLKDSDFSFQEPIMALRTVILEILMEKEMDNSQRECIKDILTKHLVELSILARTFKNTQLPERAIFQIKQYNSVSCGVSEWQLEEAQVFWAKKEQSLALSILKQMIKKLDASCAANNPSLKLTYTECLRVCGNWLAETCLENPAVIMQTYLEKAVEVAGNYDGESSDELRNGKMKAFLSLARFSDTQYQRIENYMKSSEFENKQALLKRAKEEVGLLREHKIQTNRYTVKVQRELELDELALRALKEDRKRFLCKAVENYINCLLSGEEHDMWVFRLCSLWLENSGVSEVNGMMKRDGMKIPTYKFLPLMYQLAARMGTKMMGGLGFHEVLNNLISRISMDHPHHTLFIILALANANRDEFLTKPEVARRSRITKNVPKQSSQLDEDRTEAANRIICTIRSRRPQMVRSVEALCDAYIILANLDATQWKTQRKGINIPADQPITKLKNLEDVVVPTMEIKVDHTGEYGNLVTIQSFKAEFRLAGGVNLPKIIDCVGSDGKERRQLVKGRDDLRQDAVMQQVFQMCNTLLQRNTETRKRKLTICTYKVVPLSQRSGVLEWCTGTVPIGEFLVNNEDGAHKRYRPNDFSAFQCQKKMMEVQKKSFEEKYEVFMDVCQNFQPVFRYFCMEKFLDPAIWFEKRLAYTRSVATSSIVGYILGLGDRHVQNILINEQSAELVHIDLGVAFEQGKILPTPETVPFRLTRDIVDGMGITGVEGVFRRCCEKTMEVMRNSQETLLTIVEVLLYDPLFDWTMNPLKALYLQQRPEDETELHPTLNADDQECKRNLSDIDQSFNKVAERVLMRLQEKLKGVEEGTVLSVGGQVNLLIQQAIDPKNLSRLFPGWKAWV

`CN(C)CCCOc1ccc(-c2ccc3ncc4c(c3c2)n(C2CCOCC2)c(=O)n4C)c(F)n1` [Example 21, 8-[6-(3-dimethylaminopropoxy)-2-fluoropyridin-3-yl]-3-methyl-1-(oxan-4-yl)imidazo[5,4-c]quinolin-2-one]: the IC50 is 0.000301 µM at ATM kinase, above 30 µM at ATR kinase, 0.68 µM on PI3K-α and 0.797 µM at mTOR.

With `CN(C)CCCOc1ccc(-c2ccc3ncc4c(c3c2)n([C@@H]2CCCOC2)c(=O)n4C)c(F)n1` [Example 22, 8-[6-(3-dimethylaminopropoxy)-2-fluoropyridin-3-yl]-3-methyl-1-[(3R)-oxan-3-yl]imidazo[5,4-c]quinolin-2-one], the IC50 at ATM kinase is 0.000552 µM; at ATR kinase, above 30 µM; at PI3K-α, 0.849 µM; on mTOR, 1.37 µM.

In the case of `Cn1c(=O)n([C@H]2CCCOC2)c2c3cc(-c4ccc(OCCCN5CCCC5)nc4)c(F)cc3ncc21` [Example 23, 7-fluoro-3-methyl-8-[6-(3-pyrrolidin-1-ylpropoxy)-3-pyridyl]-1-[(3S)-tetrahydropyran-3-yl]imidazo[4,5-c]quinolin-2-one], the IC50 on ATM kinase was 0.000563 µM; on ATR kinase, above 30 µM; on PI3K-α it was above 30 µM; on mTOR it was 18.2 µM.

Turning to `Cn1c(=O)n([C@@H]2CCCOC2)c2c3cc(-c4ccc(OCCCN5CCCC5)nc4)c(F)cc3ncc21` [Example 24, 7-fluoro-3-methyl-8-[6-(3-pyrrolidin-1-ylpropoxy)-3-pyridyl]-1-[(3R)-tetrahydropyran-3-yl]imidazo[4,5-c]quinolin-2-one], the half-inhibitory concentration (IC50) at ATM kinase was 0.00069 µM; at ATR kinase, above 18.8 µM; at PI3K-α, 7.29 µM; on mTOR, above 9.43 µM.

As to `CO[C@@H]1CC[C@@H](n2c(=O)n(C)c3cnc4ccc(-c5ccc(OCCCN(C)C)nc5)cc4c32)C1` [Example 25, 8-[6-(3-Dimethylaminopropoxy)pyridin-3-yl]-1-[(1R,3R)-3-methoxycyclopentyl]-3-methylimidazo[4,5-c]quinolin-2-one], the IC50 on ATM kinase is 0.000315 µM; at ATR kinase, above 20.7 µM; at PI3K-α, 1.05 µM; at mTOR, 1.19 µM.

Consider `CO[C@H]1CC[C@H](n2c(=O)n(C)c3cnc4ccc(-c5ccc(OCCCN(C)C)nc5)cc4c32)C1` [Example 26, 8-[6-(3-Dimethylaminopropoxy)pyridin-3-yl]-1-[(1S,3S)-3-methoxycyclopentyl]-3-methylimidazo[4,5-c]quinolin-2-one], for which the IC50 on ATM kinase was 0.000152 µM; at ATR kinase, above 21.8 µM; at PI3K-α, 0.331 µM; at mTOR it was 0.36 µM.

In the case of `Cn1c(=O)n([C@H]2CCCOC2)c2c3cc(-c4ccc(OCCCN5CCCCC5)nc4)ccc3ncc21` [Example 31, 3-methyl-1-[(3S)-oxan-3-yl]-8-[6-(3-piperidin-1-ylpropoxy)pyridin-3-yl]imidazo[5,4-c]quinolin-2-one], the IC50 at ATM kinase is 0.00109 µM; at ATR kinase it was above 30 µM; on PI3K-α, above 10.9 µM; at mTOR, 19.5 µM.

Take `Cn1c(=O)n([C@@H]2CCCOC2)c2c3cc(-c4ccc(OCCCN5CCCCC5)nc4)ccc3ncc21` [Example 32, 3-methyl-1-[(3R)-oxan-3-yl]-8-[6-(3-piperidin-1-ylpropoxy)pyridin-3-yl]imidazo[5,4-c]quinolin-2-one]: the IC50 at ATM kinase is 0.00178 µM; at ATR kinase, above 30 µM; at PI3K-α, 2.94 µM; at mTOR, 6.1 µM.

For the compound `Cn1c(=O)n([C@@H]2CCCOC2)c2c3cc(-c4ccc(OCCCN5CCC5)nc4)ccc3ncc21` [Example 34, 8-[6-[3-(azetidin-1-yl)propoxy]pyridin-3-yl]-3-mehtyl-1-[(3R)-oxan-3-yl]imidazo[5,4-c]quinolin-2-one], the IC50 is 0.00084 µM on ATM kinase, above 16.9 µM on ATR kinase, 0.402 µM on PI3K-α and 0.505 µM on mTOR.

As to `CO[C@H]1C[C@@H](n2c(=O)[nH]c3cnc4ccc(-c5ccc(OCCCN6CCCC6)nc5)cc4c32)C1` [Example 35, 1-(cis-3-methoxycyclobutyl)-8-[6-(3-pyrrolidin-1-ylpropoxy)pyridin-3-yl]-3H-imidazo[4,5-c]quinolin-2-one], the IC50 at ATM kinase is 0.000589 µM; on ATR kinase it was 17.8 µM; at PI3K-α, 3 µM; at mTOR, 0.579 µM.

As for `O=c1[nH]c2cnc3ccc(-c4ccc(OCCCN5CCCCC5)nc4)cc3c2n1C1CCOCC1` [Example 36, 1-(oxan-4-yl)-8-[6-(3-piperidin-1-ylpropoxy)pyridin-3-yl]-3H-imidazo[4,5-c]quinolin-2-one], the IC50 at ATM kinase is 0.00301 µM; on ATR kinase, above 30 µM; at PI3K-α, above 25 µM; at mTOR it was 10.6 µM.

Take `Cn1c(=O)n(C2CCOCC2)c2c3cc(-c4ccc(OCCCN5CCCCC5)nc4)ccc3ncc21` [Example 37, 3-methyl-1-(oxan-4-yl)-8-[6-(3-piperidin-1-ylpropoxy)pyridin-3-yl]imidazo[5,4-c]quinolin-2-one]: the IC50 was 0.0012 µM on ATM kinase, above 29.4 µM on ATR kinase, 20.7 µM at PI3K-α and 12.4 µM at mTOR.

Take `CO[C@H]1C[C@@H](n2c(=O)n(C)c3cnc4ccc(-c5ccc(OCCCN6CCC6)nc5)cc4c32)C1` [Example 38, 8-[6-[3-(azetidin-1-yl)propoxy]pyridin-3-yl]-1-(cis-3-methoxycyclobutyl)-3-methylimidazo[4,5-c]quinolin-2-one]: the IC50 on ATM kinase was 0.000292 µM; at ATR kinase, above 24.4 µM; on PI3K-α it was 0.729 µM; on mTOR, 2.24 µM.

`Cn1c(=O)n(C2CCOCC2)c2c3cc(-c4ccc(OCCCN5CCC5)nc4)ccc3ncc21` [Example 39, 8-[6-[3-(azetidin-1-yl)propoxy]pyridin-3-yl]-3-methyl-1-(oxan-4-yl)imidazo[5,4-c]quinolin-2-one]: the IC50 amounted to 0.00133 µM on ATM kinase, 10.7 µM on ATR kinase, 0.828 µM on PI3K-α and 1.27 µM on mTOR.

In the case of `CNCCCOc1ccc(-c2ccc3ncc4c(c3c2)n(C2CCOCC2)c(=O)n4C)cn1` [Example 40, 3-Methyl-8-[6-(3-methylaminopropoxy)pyridin-3-yl]-1-(oxan-4-yl)imidazo[5,4-c]quinolin-2-one], the IC50 was 0.000567 µM at ATM kinase, 1.33 µM on ATR kinase, 0.184 µM on PI3K-α and 0.191 µM on mTOR.

`CNCCCOc1ccc(-c2ccc3ncc4c(c3c2)n([C@H]2CCCOC2)c(=O)n4C)cn1` [Example 41, 3-methyl-8-[6-(3-methylaminopropoxy)pyridin-3-yl]-1-[(3S)-oxan-3-yl]imidazo[5,4-c]quinolin-2-one]: the IC50 turned out to be 0.000555 µM on ATM kinase, 3.94 µM at ATR kinase, 0.267 µM on PI3K-α and 0.395 µM on mTOR.

For `CNCCCOc1ccc(-c2ccc3ncc4c(c3c2)n([C@H]2C[C@@H](OC)C2)c(=O)n4C)cn1` [Example 42, 1-(cis-3-methoxycyclobutyl)-3-methyl-8-[6-(3-methylaminopropoxy)pyridin-3-yl]imidazo[4,5-c]quinolin-2-one], the IC50 at ATM kinase stood at 0.000249 µM; at ATR kinase, 4.37 µM; at PI3K-α, 0.321 µM; at mTOR, 0.214 µM.

Take `CNCCCOc1ccc(-c2ccc3ncc4c(c3c2)n([C@@H]2CCCOC2)c(=O)n4C)cn1` [Example 43, 3-methyl-8-[6-[3-(methylamino)propoxy]-3-pyridyl]-1-[(3R)-tetrahydropyran-3-yl]imidazo[4,5-c]quinolin-2-one]: the IC50 on ATM kinase was determined as 0.000592 µM; at ATR kinase it was 2.69 µM; on PI3K-α, 0.167 µM; at mTOR, 0.262 µM.

In the case of `CN(C)CCCOc1ccc(-c2ccc3ncc4c(c3c2)n([C@@H]2CCOC2)c(=O)n4C)cn1` [Example 44, 8-[6-[3-(Dimethylamino)propoxy]-3-pyridyl]-3-methyl-1-[(3R)-tetrahydrofuran-3-yl]imidazo[4,5-c]quinolin-2-one methanesulfonic acid salt], the IC50 on ATM kinase is 0.00107 µM; at ATR kinase, above 19.2 µM; on PI3K-α it was 0.56 µM; at mTOR, 2.37 µM.

With `CN(C)CCCOc1ccc(-c2ccc3ncc4c(c3c2)n([C@H]2CCOC2)c(=O)n4C)cn1` [Example 45, 8-[6-[3-(dimethylamino)propoxy]-3-pyridyl]-3-methyl-1-[(3S)-tetrahydrofuran-3-yl]imidazo[4,5-c]quinolin-2-one methanesulfonic acid salt], the IC50 is below 0.000534 µM on ATM kinase, 9.6 µM at ATR kinase, 0.26 µM on PI3K-α and 1.19 µM at mTOR.

Regarding `Cn1c(=O)n([C@H]2CCCOC2)c2c3cc(-c4ccc(OCCCN5CCCCC5)nc4)c(F)cc3ncc21` [Example 47, 7-Fluoro-3-methyl-8-[6-[3-(1-piperidyl)propoxy]-3-pyridyl]-1-[(3S)-tetrahydropyran-3-yl]imidazo[4,5-c]quinolin-2-one methanesulfonic acid salt], the IC50 at ATM kinase was 0.000799 µM; on ATR kinase it was above 30 µM; at PI3K-α, above 23.5 µM; at mTOR, above 30 µM.

`CN(C)CCCOc1ccc(-c2cc3c(cc2F)ncc2c3n([C@H]3CCCOC3)c(=O)n2C)c(F)n1` [Example 48, 8-[6-[3-(Dimethylamino)propoxy]-2-fluoro-3-pyridyl]-7-fluoro-3-methyl-1-[(3S)-tetrahydropyran-3-yl]imidazo[4,5-c]quinolin-2-one methanesulfonic acid salt]: the IC50 at ATM kinase was 0.00102 µM; at ATR kinase it was above 30 µM; at PI3K-α, above 9.4 µM; at mTOR it was 23 µM.

The values are drawn from patent publication US9428503B2, “Imidazo[4,5-c]quinolin-2-one compounds and their use in treating Cancer” (AstraZeneca AB, priority 2014, dated 2016).
